According to patent US20250134858A1, “COMPOSITIONS AND METHODS FOR TREATMENT OF NAFLD AND NASH AND RELATED DYSLIPIDEMIAS” (EpicentRx, Inc., priority 2022, published 2025):

Assays:
Assay type in all cases: in vivo, rat
NLRP3 inflammasome = test: Serum NLRP3, IL-1β and caspase-1 levels (ELISA) in HFD rats; settings: about 5 mg/kg every other week for last 8 of 12 weeks
Protocol: (§1) Sprague-Dawley rats (6-weeks-old male weighing about 180 grams) were randomly divided into three groups. The first group of the rats were subjected to a normal diet (ND) for a time period of 12 weeks. The second and the third group of the rats were subjected to a high-fat atherogenic diet (HFD, 40 kcal % fat, 1.25% cholesterol, 0.5% sodium cholate) for the time period of 12 weeks. The third HFD group of the rats were treated with about 5 mg/kg of RRx-001 every other week for the last 8 weeks before characterization (“HFD-RRx-001”). Several markers of inflammation and steatosis were evaluated.
(§2) In a trial that tested for markers related to NASH, every other week administrations of RRx-001 reduced hepatic steatosis scores, serum ALT and AST levels, and hepatic levels of cholesterol and triglycerides in rats fed the HFD.

[1] = system: Sprague-Dawley rats fed high-fat atherogenic diet (HFD); test: NASH markers in HFD rats: hepatic TG, hepatic TC, steatosis score, serum ALT and AST; settings: about 5 mg/kg every other week for last 8 of 12 weeks
Protocol: as §1, §2

[2] = system: Sprague-Dawley rats fed high-fat atherogenic diet (HFD); test: Relative LDL, HDL, TG and TC levels in rats fed a high-fat atherogenic diet
Protocol: as §1

O=C(CBr)N1CC([N+](=O)[O-])([N+](=O)[O-])C1 [RRx-001, 2-bromo-1-(3,3-dinitroazetidin-1-yl)ethan-1-one]
relative amount of IL-1β (NLRP3 inflammasome; ND normalized to 1, HFD alone approximately 1.7, FIG. 5B): approximately 1.2 times relative to the amount in the ND rats
relative amount of serum NLRP3 (NLRP3 inflammasome; ND normalized to 1, HFD alone approximately 1.75, FIG. 5A): approximately 1.3 times relative to the rats that were fed the ND
relative amount of caspase-1 (NLRP3 inflammasome; ND normalized to 1, HFD alone approximately 2.0, FIG. 5C): approximately 1.3 times relative to the rats that were fed the ND
relative amount of hepatic TC ([1]; ND normalized to 1, HFD alone approximately 4.3, FIG. 3B): approximately 3.8 times relative to the ND rats
relative amount of hepatic TGs ([1]; ND normalized to 1, HFD alone approximately 8.2, FIG. 3A): approximately 5.7 times relative to the amounts of the ND rats
relative amount of LDL ([2]; about 5 mg/kg RRx-001 every other week for last 8 of 12 weeks, ND normalized to 1.0, HFD alone approximately 6, FIG. 1A): approximately 4 times the LDL amount of the ND rats
relative amount of HDL ([2]; about 5 mg/kg every other week for last 8 of 12 weeks, ND normalized to 1, HFD alone approximately 0.2, FIG. 1B): approximately 0.4 relative to the ND rats
relative amount of total cholesterol (TC) ([2]; about 5 mg/kg every other week for last 8 of 12 weeks, ND normalized to 1, HFD alone approximately 2.7, FIG. 1D): approximately 1.8 times relative to the ND rats
relative amount of triglycerides (TG) ([2]; about 5 mg/kg every other week for last 8 of 12 weeks, ND normalized to 1, HFD alone approximately 6.2, FIG. 1C): approximately 4.4 relative to the ND rats
